Legend:
[1] = target: T1, human TYRO3 (455-end) (Homo sapiens, UniProt Q06418); experiment: HTRF kinase activity biochemical assay, TYRO3; details: 10 μM ATP, 30 minutes pre-incubation; read-out: HTRF TYRO IC50
T1 construct: TYRO3 (455-end); purchased SignalChem, Canada
T1 sequence (Q06418 455-890 limits assumed): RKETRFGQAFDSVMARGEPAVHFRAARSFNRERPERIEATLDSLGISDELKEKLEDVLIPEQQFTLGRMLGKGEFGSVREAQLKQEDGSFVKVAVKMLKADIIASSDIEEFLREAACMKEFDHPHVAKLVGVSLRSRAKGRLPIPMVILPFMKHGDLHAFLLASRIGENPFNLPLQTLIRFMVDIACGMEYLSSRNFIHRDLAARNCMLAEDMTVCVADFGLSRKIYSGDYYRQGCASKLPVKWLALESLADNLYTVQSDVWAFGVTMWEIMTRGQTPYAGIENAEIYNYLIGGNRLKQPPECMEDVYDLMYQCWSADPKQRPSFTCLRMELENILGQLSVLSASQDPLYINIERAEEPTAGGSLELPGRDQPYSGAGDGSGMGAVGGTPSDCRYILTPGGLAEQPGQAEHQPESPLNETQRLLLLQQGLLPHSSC

[2] = target: T2, human MER (528-end) (Homo sapiens, UniProt Q12866); experiment: HTRF kinase activity biochemical assay, MER; details: 10 μM ATP, 30 minutes pre-incubation; read-out: HTRF MERTK IC50
T2 construct: human MER (528-end); purchased Camnabio, Japan
T2 sequence (Q12866 528-999 limits assumed): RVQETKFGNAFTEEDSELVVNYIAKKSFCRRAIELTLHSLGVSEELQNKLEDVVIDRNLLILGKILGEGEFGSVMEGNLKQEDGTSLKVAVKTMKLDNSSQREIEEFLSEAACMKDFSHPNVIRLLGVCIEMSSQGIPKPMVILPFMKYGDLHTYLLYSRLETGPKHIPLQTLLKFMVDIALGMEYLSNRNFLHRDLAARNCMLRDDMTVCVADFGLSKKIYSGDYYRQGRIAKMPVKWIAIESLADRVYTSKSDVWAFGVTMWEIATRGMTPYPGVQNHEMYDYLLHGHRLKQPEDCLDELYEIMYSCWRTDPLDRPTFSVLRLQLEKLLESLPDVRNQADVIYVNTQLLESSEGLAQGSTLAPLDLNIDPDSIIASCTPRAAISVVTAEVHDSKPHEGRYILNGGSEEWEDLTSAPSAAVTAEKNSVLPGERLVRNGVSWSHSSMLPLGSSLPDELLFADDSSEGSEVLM

[3] = target: T3, human AXL (473-end) (Homo sapiens, UniProt P30530); experiment: HTRF kinase activity biochemical assay, AXL; details: 10 μM ATP, 30 minutes pre-incubation
T3 construct: human AXL (473-end); purchased SignalChem, Canada
T3 sequence (P30530 473-894 limits assumed): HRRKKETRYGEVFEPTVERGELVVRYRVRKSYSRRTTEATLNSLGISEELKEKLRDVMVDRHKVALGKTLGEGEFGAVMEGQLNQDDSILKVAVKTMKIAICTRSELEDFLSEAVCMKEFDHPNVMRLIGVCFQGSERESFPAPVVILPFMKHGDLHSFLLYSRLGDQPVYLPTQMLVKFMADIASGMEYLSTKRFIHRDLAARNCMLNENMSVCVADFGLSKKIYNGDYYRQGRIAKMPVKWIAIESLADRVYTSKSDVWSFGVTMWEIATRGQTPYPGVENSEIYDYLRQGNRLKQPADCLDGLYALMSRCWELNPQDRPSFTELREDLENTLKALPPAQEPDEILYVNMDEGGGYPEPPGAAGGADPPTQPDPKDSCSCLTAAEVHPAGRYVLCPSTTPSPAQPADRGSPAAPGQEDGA

SMILES: Cn1cc(-c2cnc(N)c(C(=O)N[C@H]3COC[C@@H]3OCc3ccc(-c4ccc5c(c4)C(C)(C)CN5C4CCN(CCO)CC4)cc3)c2)cn1 [Example 32, 2-amino-N-{(3S,4R)-4-[(4-{1-[1-(2-hydroxyethyl)piperidin-4-yl]-3,3-dimethyl-2,3-dihydro-1H-indol-5-yl}phenyl)methoxy]oxolan-3-yl}-5-(1-methyl-1H-pyrazol-4-yl)pyridine-3-carboxamide]
- IC50 [1]: 0.01 to 0.1 µM
- IC50 [2]: < 0.01 µM
- IC50 [3]: < 0.01 µM

SMILES: CC1(C)CN(C2CCN(CCO)CC2)c2ccc(-c3ccc(CO[C@H]4COC[C@@H]4NC(=O)c4cc(-c5ccc(F)nc5)cnc4N)cc3)cc21 [Example 35, 6-amino-6′-fluoro-N-{(3S,4R)-4-[(4-{1-[1-(2-hydroxyethyl)piperidin-4-yl]-3,3-dimethyl-2,3-dihydro-1H-indol-5-yl}phenyl)methoxy]oxolan-3-yl}[3,3′-bipyridine]-5-carboxamide]
- IC50 [1]: 0.1 to 1 µM
- IC50 [2]: < 0.01 µM
- IC50 [3]: 0.01 to 0.1 µM

SMILES: Cn1cc(-c2cnc(N)c(C(=O)N[C@H]3CCC[C@@H]3OCc3ccc(-c4ccc5c(c4)C(C)(C)CN5C4CCN(CCO)CC4)cc3)c2)ccc1=O [Example 36, 6-amino-N-{(1S,2S)-2-[(4-{1-[1-(2-hydroxyethyl)piperidin-4-yl]-3,3-dimethyl-2,3-dihydro-1H-indol-5-yl}phenyl)methoxy]cyclopentyl}-1′-methyl-6′-oxo-1′,6′-dihydro[3,3′-bipyridine]-5-carboxamide]
- IC50 [1]: 0.01 to 0.1 µM
- IC50 [2]: < 0.01 µM
- IC50 [3]: < 0.01 µM

SMILES: CN1C[C@H](NC(=O)c2cc(-c3ccc(F)nc3)cnc2N)[C@@H](OCc2ccc(-c3ccc4c(c3)C(C)(C)CN4C3CCN(CCO)CC3)cc2)C1 [Example 37, 6-amino-6′-fluoro-N-{(3S,4S)-4-[(4-{1-[1-(2-hydroxyethyl)piperidin-4-yl]-3,3-dimethyl-2,3-dihydro-1H-indol-5-yl}phenyl)methoxy]-1-methylpyrrolidin-3-yl}[3,3′-bipyridine]-5-carboxamide]
- IC50 [1]: 0.1 to 1 µM
- IC50 [2]: < 0.01 µM
- IC50 [3]: 0.01 to 0.1 µM

SMILES: CC1(C)CN(C2CCN(CCO)CC2)c2ccc(-c3ccc(CO[C@H]4CCC[C@@H]4NC(=O)c4nc(-c5ccc(F)nc5)cnc4N)cc3)cc21 [Example 41, 3-amino-6-(6-fluoropyridin-3-yl)-N-{(1S,2S)-2-[(4-{1-[1-(2-hydroxyethyl)piperidin-4-yl]-3,3-dimethyl-2,3-dihydro-1H-indol-5-yl}phenyl)methoxy]cyclopentyl}pyrazine-2-carboxamide]
- IC50 [1]: 0.1 to 1 µM
- IC50 [2]: < 0.01 µM
- IC50 [3]: 0.01 to 0.1 µM

SMILES: Cc1nn(C)cc1-c1cnc(N)c(C(=O)N[C@H]2COC[C@@H]2OCc2ccc(-c3ccc4c(c3)C(C)(C)CN4C3CCN(CCO)CC3)cc2)c1 [Example 42, 2-amino-5-(1,3-dimethyl-1H-pyrazol-4-yl)-N-{(3S,4R)-4-[(4-{1-[1-(2-hydroxyethyl)piperidin-4-yl]-3,3-dimethyl-2,3-dihydro-1H-indol-5-yl}phenyl)methoxy]oxolan-3-yl}pyridine-3-carboxamide]
- IC50 [1]: 0.01 to 0.1 µM
- IC50 [2]: < 0.01 µM
- IC50 [3]: < 0.01 µM

SMILES: Cn1cc(-c2cnc(N)c(C(=O)N[C@H]3CCC[C@@H]3OCc3ccc(-c4ccc5c(c4)C4(CCOC4)CN5C4CCN(CCO)CC4)cc3)c2)cn1 (stereo partly drawn) [Example 43, 2-amino-N-{(1S,2S)-2-[(4-{1-[1-(2-hydroxyethyl)piperidin-4-yl]-1,2-dihydrospiro[indole-3,3′-oxolan]-5-yl}phenyl)methoxy]cyclopentyl}-5-(1-methyl-1H-pyrazol-4-yl)pyridine-3-carboxamide]
- IC50 [1]: 0.1 to 1 µM
- IC50 [2]: < 0.01 µM
- IC50 [3]: 0.1 to 1 µM

SMILES: CC1(C)CN(C2CCN(CCO)CC2)c2ccc(-c3ccc(CO[C@H]4COC[C@@H]4NC(=O)c4cc(-c5cncc(F)c5)cnc4N)cc3)cc21 [Example 44, 6-amino-5′-fluoro-N-{(3S,4R)-4-[(4-{1-[1-(2-hydroxyethyl)piperidin-4-yl]-3,3-dimethyl-2,3-dihydro-1H-indol-5-yl}phenyl)methoxy]oxolan-3-yl}[3,3′-bipyridine]-5-carboxamide]
- IC50 [1]: 0.1 to 1 µM
- IC50 [2]: < 0.01 µM
- IC50 [3]: 0.1 to 1 µM
